The text below walks through data of patent publication US20260241049A1, “Radiopharmaceutical Compositions Targeting Glypican-3 and Uses Thereof” (RayzeBio, Inc., priority 2023, published 2026).

As a reminder, the Kd is the constant that tells how readily two partners part at equilibrium.

Starred links: 1 amine or outer side, 2 acyl side, 3 side chain; linkers in the order of their positions; H or OH if unused. Positions of bridges follow the written chain, without caps; N, C: chain ends. Non-standard residues stand in square brackets, D forms with d. Residues, ends and D or L forms follow the SMILES beside them. Primed or numbered codes have the meaning given here. MeHseMe″ = (2S)-4-methoxy-2-(methylamino)butanoic acid (N-methyl-O-methyl-L-homoserine), COCC[C@@H](C(=O)[*:2])N(C)[*:1]; NMeAla(isoquinolin-7-yl) = CN[C@@H](Cc1ccc2ccncc2c1)C(=O)O; 3Pal(6-Ph) = N[C@@H](Cc1ccc(-c2ccccc2)nc1)C(=O)O; Phe(4-COOH) = N[C@@H](Cc1ccc(C(=O)O)cc1)C(=O)O; NMeQ = CN[C@@H](CCC(N)=O)C(=O)O; NMehSer = CN[C@@H](CCO)C(=O)O; NMeK = CN[C@@H](CCCCN)C(=O)O; NMeC = CN[C@@H](CS)C(=O)O

One data set deals with Human Glypican3-Fc (Homo sapiens, UniProt P51654). As to the kind of experiment: SPR binding to Glypican-3, Method B-4 (Glypican3-Fc on Protein A chip, peptide 40 nM). The following applies: SPR method B-4, peptide 40 nM. On the procedure: A Protein A sensor chip (Cytiva) was inserted into a Biacore T200 (Cytiva), priming was performed three times with a running buffer: HBS-P+, pH 7.4 (Cytiva), and equilibration was carried out at a flow rate of […]. Gly pican3-Fc was allowed to react for 60 seconds at a flow rate of 10 μL/min. After capturing human Glypican3-Fc, a peptide solution prepared to 1 mM in DMSO solution was diluted with a running buffer to a final concentration of 1 μM. After that, the peptide solution was diluted to 40 nM in a similar manner. Using the above samples, peptide kinetics for Glypican3 was obtained by SPR measurement. Kinetics evaluation of Glypican3 was performed by SPR measurements at a flow rate of 30 μL/min. setting the association time to 120 seconds and the disassociation time to 600 seconds.
The obtained data by Method B-1, Method B-2, Method B-3 and Method B-4 were analyzed by follow. Single Cycle Kinetics was used as the kinetics evaluation model, and curve fitting was performed using Biacore T200 Evaluation Software Version 3.0 (Cytiva). The obtained sensorgram was subjected to curve fitting by the method of least squares and obtained KD values of the macrocyclic peptides in this disclosure for Glypican 3 protein are shown in Table 18.

In data set [1] the test system is Huh-7 (glypican 3 expressed on the cell surface). Description: Flow cytometry, biotinylated peptides followed by SAPE, Huh-7. Format: cell-based, human. The following applies: biotinylated peptide at 100 nM followed by SAPE (1:250), on ice; versus SK-Hep1 negative control; FIG. 2. On the procedure:
(§1) HepG2 (human hepatocellular carcinoma) and SK-HEP-1 (human hepatic adenocarcinoma) cell lines were purchased from the American Type Culture Collection (ATCC; Manassas, VA). Huh-7 (human hepatoblastoma) cell line was purchased from the Japanese Collection of Research Bioresources Cell Bank (JCRB Cell Bank, Osaka, Japan). HepG2 and SK-HEP-1 were grown in EMEM (FUJIFILM Wako Pure Chemical Corporation, 055-08975) with 10% fetal bovine serum (FBS; Thermo Fisher Scientific, 10270106) and 0.1% gentamicin (NACALAI TESQUE, 11980-14). Huh-7 was grown in DMEM (Thermo Fisher Scientific, 10567014) with 10% FBS and 0.1% gentamicin.
(§2) HepG2, SK-HEP-1 and Huh-7 cells were collected from the culture dish and stained with biotinylated peptides at 100 nM followed by Streptavidin, R-Phycoerythrin Conjugate (SAPE: Thermo Fisher Scientific, S866) (1:250). Cells were washed with phosphate-buffered saline (PBS; FUJIFILM Wako Pure Chemical Corporation, 043-29791) containing 0.5% FBS after addition of peptides or SAPE. All staining procedures were performed on ice. Samples were measured using CytoFLEX S (Beckman Coulter) and CytExpert ver2.4 software. All data were analyzed using FlowJo™ (BD Bioscience). For discrimination of live cells from dead cells, SYTOX™ Blue Dead Cell Stain (Thermo Fisher Scientific, S34857) (1:5000) was added prior to measurement.
Background: Flow cytometry measures light scatter and fluorescence of single cells or particles in a stream.

Data set [2] deals with HepG2 (glypican 3 expressed on the cell surface). Description: Flow cytometry, biotinylated peptides followed by SAPE, HepG2. It counts as cell-based, human. The following applies: biotinylated peptide at 100 nM followed by SAPE (1:250), on ice; versus SK-Hep1 negative control; FIG. 1. On the procedure: as §1, §2
For another data set, the system named is HCC patient. The following applies: cited from earlier work.
In data set [3] the test system is late-stage liver cancer patients. The following applies: phase II clinical trial, 185 late-stage liver cancer patients; cited from earlier work.
For data set [4], the target named is T1, Human Glypican3-Fc (ACRO Biosystems, GP3-H5258) (human, UniProt P51654 25-559).
T1 construct: Bought fusion protein, captured in Methods B-2, B-3 and B-4; Catalogue number is printed only in Method B-2; not shown: Fc part of the bought fusion
As to the kind of experiment: SPR (Biacore T200), Method B-4: Glypican3-Fc captured on Protein A chip, peptide at 40 nM. On the procedure: Using the above samples, peptide kinetics for Glypican3 was obtained by SPR measurement.
The obtained data by Method B-1, Method B-2, Method B-3 and Method B-4 were analyzed by follow. Single Cycle Kinetics was used as the kinetics evaluation model, and curve fitting was performed using Biacore T200 Evaluation Software Version 3.0 (Cytiva).
Background: Surface plasmon resonance follows binding to a sensor surface in real time, without labels.

In the case of `CC[C@H](C)[C@@H]1NC(=O)[C@H](Cc2ccc(C(=O)O)cc2)NC(=O)[C@H](CCC(N)=O)N(C)C(=O)[C@H](CC(=O)O)NC(=O)[C@H](CCOC)N(C)C(=O)[C@H](CCCCN)N(C)C(=O)CSC[C@@H](C(N)=O)N(C)C(=O)[C@H](Cc2ccc(-c3ccccc3)nc2)NC(=O)CNC(=O)[C@H](Cc2ccc3ccncc3c2)N(C)C(=O)[C@H](Cc2ccc(O)cc2)NC(=O)[C@H]([C@@H](C)CC)NC1=O` [Conjugate 2-61] ({CH2CO}-[NMeK][NMehSer](Me)D[NMeQ][Phe(4-COOH)]IIY[NMeAla(isoquinolin-7-yl)]G[3Pal(6-Ph)][NMeC]-NH2; thioether N-12), the equilibrium dissociation constant (Kd) on Human Glypican3-Fc stood at 230 pM.
For the molecule `CC[C@H](C)[C@@H]1NC[C@H](Cc2ccc(C(=O)O)cc2)NC(=O)[C@H](CCC(N)=O)N(C)C(=O)[C@H](CC(=O)O)NC(=O)[C@H]([C@@H](C)CC)N(C)C(=O)[C@H](CCCCNC(C)=O)N(C)C(=O)CSC[C@@H](C(=O)NCC(=O)NCCOCCOCCOCCOCCOCCOCCOCCOCCOCCOCCC(=O)N[C@@H](CCCCNC(=O)CCCC[C@@H]2SC[C@@H]3NC(=O)N[C@@H]32)C(N)=O)N(C)C(=O)[C@H](Cc2ccc(-c3ccccc3)nc2)NC(=O)CNC(=O)[C@H](Cc2ccc3ccncc3c2)N(C)C(=O)[C@H](Cc2ccc(O)cc2)NC(=O)[C@H]([C@@H](C)CC)NC1=O` [PLB-60], the “comparative staining of Huh-7 cells (flow cytometry)” value in data set [1] is “specific binding”. In data set [2], the “comparative staining of HepG2 cells (flow cytometry)” value is “specific binding”.
With Codrituzumab, the “tolerance in phase I clinical trials” value in the data set with HCC patient (phase I clinical trials) was “good immune tolerance”. The “anti-tumour effect in HCC patient” value in the data set on HCC patient (phase I, advanced hepatocellular carcinoma) was “anti-tumour effect”. In data set [3], the “therapeutic efficacy compared with the control group” value is reported as “not impressive”.

B1: Macrocyclic peptide of Example 2-61 (SEQ ID No. 72) (peptide)
peptide: {CH2CO}-[NMeK][MeHseMe″]D[NMeQ][Phe(4-COOH)]IIY[NMeAla(isoquinolin-7-yl)]G[3Pal(6-Ph)][NMeC]-NH2
modifications: thioether N-12
SMILES: CC[C@H](C)[C@@H]1NC(=O)[C@H](Cc2ccc(C(=O)O)cc2)NC(=O)[C@H](CCC(N)=O)N(C)C(=O)[C@H](CC(=O)O)NC(=O)[C@H](CCOC)N(C)C(=O)[C@H](CCCCN)N(C)C(=O)CSC[C@@H](C(N)=O)N(C)C(=O)[C@H](Cc2ccc(-c3ccccc3)nc2)NC(=O)CNC(=O)[C@H](Cc2ccc3ccncc3c2)N(C)C(=O)[C@H](Cc2ccc(O)cc2)NC(=O)[C@H]([C@@H](C)CC)NC1=O
B1 gave a Kd in data set [4] of 230 pM.
